# Test results reported in ChEMBL document CHEMBL4680194, “Synthesis and biological evaluation of 1,2,4-triazole derivatives as potential neuroprotectant against ischemic brain injury” (Eur J Med Chem, 2020).
# The source made the active and inactive calls. The rule behind the calls is not given here.
# Assays:
# [1] = target: T1, Nuclear factor erythroid 2-related factor 2 (Rattus norvegicus) (UniProt O54968); assay: Induction of Nrf2 nuclear translocation in rat PC-12 cells assessed as SNP-induced GSH-px level at 2.5 uM incubated for 1 hr followed by SNP stimulation and measured after 24 hrs (reference value: 37.70 +/- 2.88 mU/mg); type: cell-based; details: time 25.0 hrs
# T1 sequence (whole entry): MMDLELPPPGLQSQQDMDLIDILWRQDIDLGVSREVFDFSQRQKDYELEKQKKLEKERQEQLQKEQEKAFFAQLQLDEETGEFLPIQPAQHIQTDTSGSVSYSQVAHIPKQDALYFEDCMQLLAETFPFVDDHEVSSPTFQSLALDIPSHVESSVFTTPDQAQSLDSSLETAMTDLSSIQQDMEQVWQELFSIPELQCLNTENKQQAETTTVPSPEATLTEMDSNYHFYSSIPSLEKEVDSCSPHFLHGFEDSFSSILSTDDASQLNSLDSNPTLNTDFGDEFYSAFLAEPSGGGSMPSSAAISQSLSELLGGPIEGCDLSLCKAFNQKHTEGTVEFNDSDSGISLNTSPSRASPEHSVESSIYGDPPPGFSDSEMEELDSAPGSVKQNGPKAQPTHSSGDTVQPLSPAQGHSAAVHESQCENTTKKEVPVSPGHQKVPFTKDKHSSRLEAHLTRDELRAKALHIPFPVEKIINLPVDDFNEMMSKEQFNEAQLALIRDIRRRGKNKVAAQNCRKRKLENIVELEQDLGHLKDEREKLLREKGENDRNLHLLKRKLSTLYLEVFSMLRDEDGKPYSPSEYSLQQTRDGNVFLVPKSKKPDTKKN
# Rattus norvegicus [2] = assay: Neuroprotective activity in Sprague-Dawley rat model of middle cerebral artery occlusion-induced ischemic injury assessed as increase in SOD level at 3 to 30 mg/kg, ip administered TID and measured after 24 hrs by ELISA; type: functional, organism-based; details: dose 3-30 mg/kg
# [3] = target: T1, Nuclear factor erythroid 2-related factor 2 (Rattus norvegicus); assay: Induction of Nrf2 nuclear translocation in rat PC-12 cells assessed as SNP-induced GSH level at 10 uM incubated for 1 hr followed by SNP stimulation and measured after 24 hrs (reference value: 75.78 +/- 1.74 nM/mg); type: cell-based; details: time 25.0 hrs
# PC-12 [4] = assay: Inhibition of H2O2-induced apoptosis in rat PC-12 cells assessed as effect on cell morphology incubated for 1 hr followed by H2O2 stimulation and measured after 5 hrs by Hoechst 33258 staining based fluorescence microscopy; type: functional; details: dose 2.5-10 µM, time 6.0 hrs
# [5] = Clearance in Sprague-Dawley rat at 20 mg/kg, po measured upto 24 hrs by LC-MS/MS analysis; type: ADME, organism-based; details: in vivo
# [6] = target: T1, Nuclear factor erythroid 2-related factor 2 (Rattus norvegicus); assay: Induction of Nrf2 nuclear translocation in rat PC-12 cells assessed as H2O2-induced SOD level incubated for 1 hr followed by H2O2 stimulation and measured after 5 hrs; type: cell-based; details: dose 2.5-10 µM, time 6.0 hrs
# [7] = Toxicity in […] assessed as body weight at 400 mg/kg, ip measured on day 3 (reference value: 24.4 to 28.4 g); type: organism-based; details: in vivo, 72 h, time 3 day
# PC-12 [8] = assay: Cytoprotective activity against H2O2-induced cell death in rat PC-12 cells assessed as increase in cell viability at 10 uM incubated for 1 hr followed by H2O2 stimulation and measured after 5 hrs by MTT assay; type: functional; details: time 6 hrs
# PC-12 [9] = assay: Inhibition of H2O2-induced mitochondrial membrane potential loss in rat PC-12 cells assessed as increase in red fluoresence at 2.5 to 10 uM incubated for 1 hr followed by H2O2 stimulation and measured after 5 hrs by JC-1 staining based fluorescence microscopy; type: functional, cell-based; details: dose 2.5-10 µM, time 6.0 hrs
# [10] = AUC (0 to infinity) in Sprague-Dawley rat at 20 mg/kg, po measured upto 24 hrs by LC-MS/MS analysis; type: ADME, organism-based; set-up: route oral, dose 20 mg/kg, time <=24; details: in vivo
# [11] = Toxicity in […] assessed as body weight at 400 mg/kg, ip observed after immediately (reference value: 24.4 to 28.4 g); type: organism-based; details: in vivo
# [12] = Cmax in Sprague-Dawley rat at 2 mg/kg, iv measured upto 24 hrs by LC-MS/MS analysis; type: ADME, organism-based; set-up: route intravenous, dose 2 mg/kg, time <=24; details: in vivo
# [13] = AUC (0 to infinity) in Sprague-Dawley rat at 2 mg/kg, iv measured upto 24 hrs by LC-MS/MS analysis; type: ADME, organism-based; set-up: route intravenous, dose 2 mg/kg, time <=24; details: in vivo
# [14] = Cmax in Sprague-Dawley rat at 20 mg/kg, po measured upto 24 hrs by LC-MS/MS analysis; type: ADME, organism-based; set-up: route oral, dose 20 mg/kg, time <=24; details: in vivo
# Rattus norvegicus [15] = assay: Neuroprotective activity in Sprague-Dawley rat model of middle cerebral artery occlusion-induced ischemic injury assessed as improvement in behavioral changes at 3 to 30 mg/kg, ip administered TID and measured after 24 hrs; type: functional, organism-based; details: dose 3-30 mg/kg
# [16] = target: T1, Nuclear factor erythroid 2-related factor 2 (Rattus norvegicus); assay: Induction of Nrf2 nuclear translocation in rat PC-12 cells assessed as H2O2-induced GSH level at 5 uM incubated for 1 hr followed by H2O2 stimulation and measured after 5 hrs (reference value: 65.52 +/- 1.44 nM/mg); type: cell-based; details: time 6.0 hrs
# [17] = target: T1, Nuclear factor erythroid 2-related factor 2 (Rattus norvegicus); assay: Induction of Nrf2 nuclear translocation in rat PC-12 cells assessed as H2O2-induced GSH-px level at 2.5 uM incubated for 1 hr followed by H2O2 stimulation and measured after 5 hrs (reference value: 45.92 +/- 3.64 mU/mg); type: cell-based; details: time 6.0 hrs
# [18] = target: T1, Nuclear factor erythroid 2-related factor 2 (Rattus norvegicus); assay: Induction of Nrf2 nuclear translocation in rat PC-12 cells assessed as SNP-induced SOD level incubated for 1 hr followed by SNP stimulation and measured after 24 hrs; type: cell-based; details: dose 2.5-10 µM, time 25.0 hrs
# PC-12 [19] = assay: Cytoprotective activity against SNP-induced cell death in rat PC12 cells assessed as increase in cell viability at 10 uM incubated for 1 hr followed by SNP stimulation and measured after 24 hrs in presence of LY294002 by MTT assay; type: functional, cell-based; details: time 25.0 hrs
# [20] = target: T1, Nuclear factor erythroid 2-related factor 2 (Rattus norvegicus); assay: Induction of Nrf2 nuclear translocation in rat PC-12 cells assessed as H2O2-induced GSH-px level at 10 uM incubated for 1 hr followed by H2O2 stimulation and measured after 5 hrs (reference value: 45.92 +/- 3.64 mU/mg); type: cell-based; details: time 6.0 hrs
# Rattus norvegicus [21] = assay: Neuroprotective activity in Sprague-Dawley rat model of middle cerebral artery occlusion-induced ischemic injury assessed as decrease in IL-1beta level at 3 to 30 mg/kg, ip administered TID and measured after 24 hrs by ELISA; type: functional, organism-based; details: dose 3-30 mg/kg
# [22] = target: T1, Nuclear factor erythroid 2-related factor 2 (Rattus norvegicus); assay: Induction of Nrf2 nuclear translocation in rat PC-12 cells assessed as SNP-induced GSH-px level incubated for 1 hr followed by SNP stimulation and measured after 24 hrs; type: cell-based; details: dose 2.5-10 µM, time 25.0 hrs
# [23] = Tmax in Sprague-Dawley rat at 20 mg/kg, po measured upto 24 hrs by LC-MS/MS analysis; type: ADME, organism-based; details: in vivo
# Rattus norvegicus [24] = assay: Neuroprotective activity in Sprague-Dawley rat model of middle cerebral artery occlusion-induced ischemic injury assessed as infarction volume at 10 mg/kg, ip administered TID and measured after 6 hrs by TTC staining based assay (reference value: 28.67 +/- 2.90 %); type: functional
# PC-12 [25] = assay: Inhibition of SNP-induced mitochondrial membrane potential loss in rat PC-12 cells assessed as increase in red fluoresence at 2.5 to 10 uM incubated for 1 hr followed by SNP stimulation and measured after 24 hrs by JC-1 staining based fluorescence microscopy; type: functional, cell-based; details: dose 2.5-10 µM, time 25.0 hrs
smiles,measurement,setting,value
COc1ccc(-c2nc(-c3ccccc3O)n(-c3ccc(S(N)(=O)=O)cc3)n2)c(O)c1,Activity,[1],42.5 mU/mg
same,Activity,Rattus norvegicus [2],Active
same,Activity,[3],89.2 nM/mg
same,inhibition,PC-12 [4],Dose-dependent effect
same,CL/F,[5],1.4 L/h/kg
same,Activity,[6],Dose-dependent effect
same,Activity,[7],24.5 g
same,Activity,PC-12 [8],30%
same,inhibition,PC-12 [9],Active
same,AUC(0-inf),[10],14200 ng·h/mL
same,Activity,[11],24.6 g
same,Cmax,[12],2750 ng/mL
same,AUC(0-inf),[13],2330 ng·h/mL
same,Cmax,[14],2030 ng/mL
same,Activity,Rattus norvegicus [15],Active
same,Activity,[16],72.5 nM/mg
same,Activity,[17],51 mU/mg
same,Activity,[18],Dose-dependent effect
same,Activity,PC-12 [19],inactive
same,Activity,[20],77.9 mU/mg
same,Activity,Rattus norvegicus [21],Active
same,Activity,[22],Dose-dependent effect
same,Tmax,[23],2 h
same,Activity,Rattus norvegicus [24],12.59%
same,inhibition,PC-12 [25],Active
